# Data from PubChem BioAssay AID1963854 (Molecular Pharmacology Branch, DTP, NCI, 2024).
# Tested on: 186277-243-T-J2-PDC complex spheroid viability
# Experiment: Anticancer human tumor 186277-243-T-J2-PDC patient-derived colon adenocarcinoma cell line growth inhibition [POLQ]
# Details: for IC50: curve of first compound; for viability, T/C: stronger effect = lower value
# Outline: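 Growth inhibition in 3D: complex spheroids (tumor PDC, HUVEC, MSC) treated with POLQ inhibitor combinations; where Cmax unknown, highest tested concentration 10 microM, except SN-38 at 1 microM.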
# [1] = second compound 0.0316 µM, first compound 0.0316 µM
# [2] = second compound 0.0316 µM, first compound 0.1 µM
# [3] = second compound 0.0316 µM, first compound 0.316 µM
# [4] = second compound 0.0316 µM, first compound 1 µM
# [5] = second compound 0.0316 µM, first compound 3.16 µM
# [6] = second compound 0.0316 µM, first compound 10 µM
# [7] = second compound 0.1 µM, first compound 0.0316 µM
# [8] = second compound 0.1 µM, first compound 0.1 µM
# [9] = second compound 0.1 µM, first compound 0.316 µM
# [10] = second compound 0.1 µM, first compound 1 µM
# [11] = second compound 0.1 µM, first compound 3.16 µM
# [12] = second compound 0.1 µM, first compound 10 µM
# [13] = second compound 0.316 µM, first compound 0.0316 µM
# [14] = second compound 0.316 µM, first compound 0.1 µM
# [15] = second compound 0.316 µM, first compound 0.316 µM
# [16] = second compound 0.316 µM, first compound 1 µM
# [17] = second compound 0.316 µM, first compound 3.16 µM
# [18] = second compound 0.316 µM, first compound 10 µM
# [19] = second compound 1 µM, first compound 0.0316 µM
# [20] = second compound 1 µM, first compound 0.1 µM
# [21] = second compound 1 µM, first compound 0.316 µM
# [22] = second compound 1 µM, first compound 1 µM
# [23] = second compound 1 µM, first compound 3.16 µM
# [24] = second compound 1 µM, first compound 10 µM
# [25] = second compound 3.16 µM, first compound 0.0316 µM
# [26] = second compound 3.16 µM, first compound 0.1 µM
# [27] = second compound 3.16 µM, first compound 0.316 µM
# [28] = second compound 3.16 µM, first compound 1 µM
# [29] = second compound 3.16 µM, first compound 3.16 µM
# [30] = second compound 3.16 µM, first compound 10 µM
# [31] = second compound 10 µM, first compound 0.0316 µM
# [32] = second compound 10 µM, first compound 0.1 µM
# [33] = second compound 10 µM, first compound 0.316 µM
# [34] = second compound 10 µM, first compound 1 µM
# [35] = second compound 10 µM, first compound 3.16 µM
# [36] = second compound 10 µM, first compound 10 µM
# 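Further: spheroids exposed to compounds for seven days.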
# 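Wherever viability, T/C is given: 100% = DMSO vehicle control viability.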
smiles,measurement,setting,value
CCc1cc2c(N3CCc4c(cc(Cn5ccnc5)cc4-c4cn(C)nc4C(F)(F)F)C3=O)cc(C)nc2c(OC)n1 + Nc1ccc(C#CCN(C(=O)Cc2ncc(C(F)(F)F)cc2C(F)(F)F)c2ccc(F)cc2)nn1,IC50,second compound 0.0316 µM,> 10 µM
same,IC50,second compound 0.1 µM,> 10 µM
same,IC50,second compound 0.316 µM,> 10 µM
same,IC50,second compound 1 µM,> 10 µM
same,IC50,second compound 3.16 µM,> 10 µM
same,IC50,second compound 10 µM,> 10 µM
same,"viability, T/C",[1],97%
same,"viability, T/C",[2],104%
same,"viability, T/C",[3],96%
same,"viability, T/C",[4],117%
same,"viability, T/C",[5],119%
same,"viability, T/C",[6],95.8%
same,"viability, T/C",[7],95.3%
same,"viability, T/C",[8],89.4%
same,"viability, T/C",[9],96.9%
same,"viability, T/C",[10],108%
same,"viability, T/C",[11],124%
same,"viability, T/C",[12],97.2%
same,"viability, T/C",[13],107%
same,"viability, T/C",[14],89.2%
same,"viability, T/C",[15],96.6%
same,"viability, T/C",[16],101%
same,"viability, T/C",[17],89.7%
same,"viability, T/C",[18],86%
same,"viability, T/C",[19],95.1%
same,"viability, T/C",[20],106%
same,"viability, T/C",[21],101%
same,"viability, T/C",[22],98.7%
same,"viability, T/C",[23],114%
same,"viability, T/C",[24],90.6%
same,"viability, T/C",[25],104%
same,"viability, T/C",[26],88.4%
same,"viability, T/C",[27],91.8%
same,"viability, T/C",[28],87.6%
same,"viability, T/C",[29],109%
same,"viability, T/C",[30],87.3%
same,"viability, T/C",[31],102%
same,"viability, T/C",[32],95.5%
same,"viability, T/C",[33],94.1%
same,"viability, T/C",[34],106%
same,"viability, T/C",[35],95.6%
same,"viability, T/C",[36],76.2%
O=C(c1cc(Cc2n[nH]c(=O)c3ccccc23)ccc1F)N1CCN(C(=O)C2CC2)CC1 + Cc1cccc(N(C)C(=O)C2C(O)CCN2c2nc(C)cc(C(F)(F)F)c2C#N)c1,IC50,second compound 0.0316 µM,> 10 µM
same,IC50,second compound 0.1 µM,> 10 µM
same,IC50,second compound 0.316 µM,> 10 µM
same,IC50,second compound 1 µM,> 10 µM
same,IC50,second compound 3.16 µM,> 10 µM
same,IC50,second compound 10 µM,> 10 µM
same,"viability, T/C",[1],89.3%
same,"viability, T/C",[2],99.9%
same,"viability, T/C",[3],99.9%
same,"viability, T/C",[4],100%
same,"viability, T/C",[5],118%
same,"viability, T/C",[6],75.5%
same,"viability, T/C",[7],94%
same,"viability, T/C",[8],92.4%
same,"viability, T/C",[9],96.3%
same,"viability, T/C",[10],92.7%
same,"viability, T/C",[11],114%
same,"viability, T/C",[12],81.8%
same,"viability, T/C",[13],94.8%
same,"viability, T/C",[14],116%
same,"viability, T/C",[15],99.7%
same,"viability, T/C",[16],97%
same,"viability, T/C",[17],112%
same,"viability, T/C",[18],78.1%
same,"viability, T/C",[19],101%
same,"viability, T/C",[20],96.8%
same,"viability, T/C",[21],113%
same,"viability, T/C",[22],90.7%
same,"viability, T/C",[23],99.5%
same,"viability, T/C",[24],76.1%
same,"viability, T/C",[25],96.3%
same,"viability, T/C",[26],99%
same,"viability, T/C",[27],97.6%
same,"viability, T/C",[28],106%
same,"viability, T/C",[29],113%
same,"viability, T/C",[30],58.7%
same,"viability, T/C",[31],115%
same,"viability, T/C",[32],103%
same,"viability, T/C",[33],100%
same,"viability, T/C",[34],108%
same,"viability, T/C",[35],113%
same,"viability, T/C",[36],65.2%
O=C(Nc1ccc(O)c(NS(=O)(=O)c2ccc(F)cc2)c1)c1ccc(-c2ccccc2)cc1 + COC1C(OC(N)=O)C(O)C(Oc2ccc3c(O)c(NC(=O)c4ccc(O)c(CC=C(C)C)c4)c(=O)oc3c2C)OC1(C)C,IC50,second compound 0.0316 µM,> 10 µM
same,IC50,second compound 0.1 µM,> 10 µM
same,IC50,second compound 0.316 µM,> 10 µM
same,IC50,second compound 1 µM,> 10 µM
same,IC50,second compound 3.16 µM,> 10 µM
same,IC50,second compound 10 µM,> 10 µM
same,"viability, T/C",[1],89%
same,"viability, T/C",[2],113%
same,"viability, T/C",[3],107%
same,"viability, T/C",[4],99%
same,"viability, T/C",[5],105%
same,"viability, T/C",[6],94.3%
same,"viability, T/C",[7],107%
same,"viability, T/C",[8],105%
same,"viability, T/C",[9],102%
same,"viability, T/C",[10],98.2%
same,"viability, T/C",[11],107%
same,"viability, T/C",[12],93.1%
same,"viability, T/C",[13],96.2%
same,"viability, T/C",[14],104%
same,"viability, T/C",[15],116%
same,"viability, T/C",[16],104%
same,"viability, T/C",[17],119%
same,"viability, T/C",[18],96%
same,"viability, T/C",[19],90.8%
same,"viability, T/C",[20],101%
same,"viability, T/C",[21],116%
same,"viability, T/C",[22],95%
same,"viability, T/C",[23],125%
same,"viability, T/C",[24],99.4%
same,"viability, T/C",[25],90.1%
same,"viability, T/C",[26],103%
same,"viability, T/C",[27],111%
same,"viability, T/C",[28],103%
same,"viability, T/C",[29],105%
same,"viability, T/C",[30],91.5%
same,"viability, T/C",[31],91.9%
same,"viability, T/C",[32],111%
same,"viability, T/C",[33],103%
same,"viability, T/C",[34],103%
same,"viability, T/C",[35],108%
same,"viability, T/C",[36],101%
